Laboratory results as given in US6087358A (priority 1997, dated 2000).
≈ marks a conversion by molar mass, not a printed value. Like-named read-outs stand apart in the source and are kept apart here.

Experiments:
[1] = tested on: Mycobacterium bovis BCG (recombinant strain); assay: microbe, parasite or virus in culture; format: cell-based; settings: Mycobacterium tuberculosis variant bovis BCG, BCG, 144 h; 6 days 37° C.; read-out: MIC, column A, 3(S) compounds
Cryptosporidium parvum = assay: Inhibition of Cryptosporidium parvum (ELISA, infected HCT-8 monolayers); format: cell-based
Procedure: Susceptibility testing against Cryptosporidium was performed according to published procedures (K. Woods, M. Nesterenko, S. Upton, "Development of a microtiter ELISA to quantify development of Cryptosporidium parvum in vitro," FEMS Microbiology Letters, 128:89-94 (1995).
Compounds were solubilized to a concentration of 100 mg/mL in 100% DMSO. DMSO solutions of test compounds were added to the test wells of a microplate at a volume that produced a final concentration of DMSO of 0.2%. Monolayers of human ileocecal adenocarcinoma cells (HCT-8) were prepared by growth in RPMI 1640 medium in 96-Well tissue culture trays for 24 h. Oocysts of C. parvum were allowed to excyst in 10% bleach for 10 min prior to use. Monolayers were then infected with 2-3×10^4 oocysts/well and incubated in the presence or absence of compound for 48 h at 35° C. in 5% CO2 and 95% humidity. Background consisted of wells containing killed oocysts (freeze thaw cycle following 30 sec exposure to liquid nitrogen). Growth control wells were infected with 2-3×10^4 oocysts/well in the absence of test compounds. At the end of incubation, wells were washed and fixed by adding 100 uL of 4% formalin in phosphate buffered saline (pH 7.3) per well for 2 h. After blocking with 1% bovine serum albumin, and 0.002% Tween 20, 50 uL of rat anti-Cryptosporidium membrane protein antiserum was added. After 30 min, wells were washed in PBS and 50 uL of secondary antibody (goat anti-rat antibody conjugated with horseradish peroxidase) was added. After 20-30 min, wells were washed again in PBS and 50 uL of 3,3',5,5'-tetramethylbenzidine solution was added. Plates were allowed to develop for 10-15 min and the optical density was read at 630 nm. Percent inhibition was calculated by comparing the optical density of the drug treated group to that of the untreated control.

[2] = tested on: Mycobacterium tuberculosis (rMTB); assay: In vivo antimycobacterial activity against M. tuberculosis (rMTB) in lungs of mice; set-up: species or system Mycobacterium tuberculosis Erdman, in female BALB/c mice; settings: 25 mg/kg daily oral gavage, CM-2, 10 days, control 117,258 (PA-824, 636, 1297) or 22,751 (others)
Helicobacter pylori = assay: In vitro inhibition of Helicobacter pylori (broth microdilution MIC); settings: Helicobacter pylori
Helicobacter felis = assay: In vivo activity against Helicobacter felis in mice (urease test of stomach biopsy); set-up: species or system in female CD-1 mice; settings: 50 mg/kg three times daily oral gavage, CM-2, four days; vehicle and untreated 100
Procedure: Female CD-1 mice weighing 30 grams were infected by oral gavage with 10^8 -10^9 colony forming units of H. felis. This infection process was repeated two, and four days, thereafter. Colonization of the stomach was allowed to occur over a seven day period. Animals were segregated into groups of five, and were treated three times daily by oral gavage with 50 mg/kg of test drugs prepared in the CM-2 formulation vehicle (Example 52). Treatment continued for four days. One group of animals received an equal volume of formulation vehicle alone, to ensure that the vehicle had no effect on the Helicobacter infection. A separate untreated control group was also included.
All animals were then sacrificed, the stomachs were removed, opened, and the contents washed out. A five millimeter diameter biopsy was removed, and transferred to a urease test solution containing a pH-sensitive dye, which was then incubated at 37° C. incubator for 24 hours. A blue or purple coloration in this test solution signifies a positive reaction, indicating the continued presence of viable Helicobacter bacteria; a negative result is indicated by a yellow coloration. Viable Helicobacter bacteria produce a urease enzyme which converts urea, of which there is an abundant supply in the stomach (from saliva and gastric juices), into bicarbonate and ammonia, which are strong bases. This mechanism is considered to provide conditions more amenable to the survival of Helicobacter in the otherwise acidic conditions prevalent in the stomach.

[3] = tested on: Helicobacter pylori Strain 4187E; assay: In vivo activity against Helicobacter pylori strain 4187E in mice; set-up: species or system in outbred female white mice; settings: oral gavage, four days
Text: Outbred female white mice (20 grams) were infected by oral gavage with 10^7 -10^8 colony forming units of H. pylori strain 4187E (originally isolated from a patient with a duodenal ulcer). […] Treatment continued for four days. Clarithromycin, administered at the same concentration and for the same duration, was included as a positive control. One group of animals also received an equal volume of formulation vehicle alone, to provide a negative control.
Five days after cessation of treatment, all animals were sacrificed, the stomachs were removed, opened, and the contents washed out. The entire mucosal surface was then spread evenly over the surface of an agar plate containing antibiotics appropriate for the prevention of growth of microorganisms other than Helicobacter spp. After seven days incubation under microaeropilic conditions at 37° C., culture plates were evaluated for bacterial growth.

[4] = tested on: M. tuberculosis H37 Rv in human THP-1 macrophages; assay: In vitro activity against M. tuberculosis in human macrophages (luciferase bioluminescence); format: cell-based, Mycobacterium tuberculosis, in human THP-1 cells

For `O=[N+]([O-])c1cn2c(n1)OC[C@@H](OCc1ccc(OC(F)(F)F)cc1)C2` [PA-824, 3S 4-(Trifluromethoxy)benzyloxy-6-nitro-2H-3,4-dihydro-[2-1b]imidazopyran], the MIC [1] was 0.06 µg/mL (≈ 0.167 µM), the dose-related response (Cryptosporidium parvum; C. parvum growth) was “A clear dose-related response” and the IC50 (Cryptosporidium parvum; Cryptosporidium parvum, HCT-8) was 25 µg/mL (≈ 69.6 µM). It also gave an inhibition at 5 µg/mL (Cryptosporidium parvum; Cryptosporidium parvum, HCT-8, 5 μg/mL, 48 h, read-out: Percent Inhibition of C. parvum) of 3.1%, an inhibition at 10 µg/mL (Cryptosporidium parvum; Cryptosporidium parvum, HCT-8, 10 μg/mL, 48 h, read-out: Percent Inhibition of C. parvum) of 17% and an inhibition at 20 µg/mL (Cryptosporidium parvum; Cryptosporidium parvum, HCT-8, 20 μg/mL, 48 h, read-out: Percent Inhibition of C. parvum) of 40%. For the same compound, the inhibition at 25 µg/mL (Cryptosporidium parvum; Cryptosporidium parvum, HCT-8, 25 μg/mL, 48 h, read-out: Percent Inhibition of C. parvum) was 52%, the inhibition at 50 µg/mL (Cryptosporidium parvum; Cryptosporidium parvum, HCT-8, 50 μg/mL, 48 h, read-out: Percent Inhibition of C. parvum) was 93% and the inhibition at 100 µg/mL (Cryptosporidium parvum; Cryptosporidium parvum, HCT-8, 100 μg/mL, 48 h, read-out: Percent Inhibition of C. parvum) was 87%. The “Average RLUs, M. tuberculosis (rMTB) in lungs” value [2] was 2,496 RLUs, the MIC (Helicobacter pylori; 72 h, read-out: MIC against Helicobacter pylori, strain 17 (Table 5A)) was over 25 µg/mL and the MIC (Helicobacter pylori; 72 h, read-out: MIC against Helicobacter pylori, strain 19 (Table 5A)) was 0.4 µg/mL (≈ 1.11 µM). The MIC (Helicobacter pylori; 72 h, read-out: MIC against Helicobacter pylori, strain 20 (Table 5A)) was 0.2 µg/mL (≈ 0.557 µM), the MIC (Helicobacter pylori; 72 h, read-out: MIC against Helicobacter pylori, strain 40 (Table 5A)) was 0.4 µg/mL (≈ 1.11 µM) and the MIC (Helicobacter pylori; 72 h, read-out: MIC against Helicobacter pylori, strain 43 (Table 5A)) was 0.8 µg/mL (≈ 2.23 µM). The MIC (Helicobacter pylori; 72 h, read-out: MIC against Helicobacter pylori, strain 76 (Table 5A)) was 12.5 µg/mL (≈ 34.8 µM), the MIC (Helicobacter pylori; ATCC43504, 72 h, read-out: MIC against Helicobacter pylori, strain ATCC 43504 (Table 5A)) was over 25 µg/mL and the “% Survival” value (Helicobacter felis) was 40%. For the same compound, the “% Eradication” value ([3]; once daily 25 mg/kg) was 0%, the “% Eradication” value ([3]; twice daily 5 mg/kg) was 10% and the “% Eradication” value ([3]; twice daily 50 mg/kg) was 100%. It also gave an RLU values ([4]; 0.06 μg/mL, day 1) of 25856 RLU, an RLU values ([4]; 0.06 μg/mL, day 2) of 93959 RLU and an RLU values ([4]; 0.06 μg/mL, day 3) of 109301 RLU. It also gave an RLU values ([4]; 0.06 μg/mL, day 4) of 118318 RLU, an RLU values ([4]; 0.06 μg/mL, day 7) of 138792 RLU and an RLU values ([4]; 0.13 μg/mL, day 1) of 16904 RLU. For the same compound, the RLU values ([4]; 0.13 μg/mL, day 2) was 40573 RLU, the RLU values ([4]; 0.13 μg/mL, day 3) was 29162 RLU and the RLU values ([4]; 0.13 μg/mL, day 4) was 27802 RLU. For the same compound, the RLU values ([4]; 0.13 μg/mL, day 7) was 28699 RLU, the RLU values ([4]; 0.25 μg/mL, day 1) was 15814 RLU and the RLU values ([4]; 0.25 μg/mL, day 2) was 18064 RLU. For the same compound, the RLU values ([4]; 0.25 μg/mL, day 3) was 13413 RLU, the RLU values ([4]; 0.25 μg/mL, day 4) was 8684 RLU and the RLU values ([4]; 0.25 μg/mL, day 7) was 6437 RLU. It also gave an RLU values ([4]; 0.5 μg/mL, day 1) of 10021 RLU, an RLU values ([4]; 0.5 μg/mL, day 2) of 9610 RLU and an RLU values ([4]; 0.5 μg/mL, day 3) of 6579 RLU. For the same compound, the RLU values ([4]; 0.5 μg/mL, day 4) was 5068 RLU, the RLU values ([4]; 0.5 μg/mL, day 7) was 2957 RLU and the RLU values ([4]; 1.0 μg/mL, day 1) was 8197 RLU. It also gave an RLU values ([4]; 1.0 μg/mL, day 2) of 5588 RLU, an RLU values ([4]; 1.0 μg/mL, day 3) of 3950 RLU and an RLU values ([4]; 1.0 μg/mL, day 4) of 2686 RLU. It also gave an RLU values ([4]; 1.0 μg/mL, day 7) of 1986 RLU, an RLU values ([4]; 2.0 μg/mL, day 1) of 4571 RLU and an RLU values ([4]; 2.0 μg/mL, day 2) of 3833 RLU. The RLU values ([4]; 2.0 μg/mL, day 3) was 2567 RLU, the RLU values ([4]; 2.0 μg/mL, day 4) was 1507 RLU and the RLU values ([4]; 2.0 μg/mL, day 7) was 1217 RLU. For the same compound, the minimal effective concentration ([4]; Mycobacterium tuberculosis, H37RV, human THP-1 macrophages, read-out: concentrations sufficient to prevent intracellular growth of M. tuberculosis) was at least 0.25 µg/mL and the dose-related response ([4]; concentrations up to 2.0 μg/ml) was “A clear dose-related response”.
